Data: patent US5264429A, “2-spirocyclopropyl cephalosporin sulfone derivatives” (SynPhar Laboratories, Inc., priority 1991, dated 1993)
Where two headings read alike, the source gives them in different places.

Experiments:
cathepsin C = biological target: T1, cathepsin C (Bos taurus, UniProt Q3ZCJ8); test: Inhibition of cathepsin C (CTC); type: biochemical, bovine
T1 construct: from tissue; host or cells: bovine spleen
Procedure: (§1) HLE, CTG, PPE and CTD were tested at 30° C. and the others were
(§2) TRY, trypsin; THR, thrombin; PTH, plasmin; CTC, cathepsin C; ATM,
Enzyme: Purified cathepsin C from bovine spleen
Substrate: Glycyl-L-phenylalanine-pNA
Reaction mixture: 50 mM Citrate buffer (pH 5.4), 5 mM B-Mercaptoethanol, 150 mM NaCl, 10% DMSO, 20 mM Substrate.
(§3) Except for Cathepsin D, the enzyme activities were determined by monitoring the increase in absorbance at 410 nm caused by the hydrolysis of chromogenic substrates. The activity of Cathepsin D was determined by monitoring the absorbance of 5% trichloroacetic acid-soluble material at 280 nm.
(§4) Inhibition of enzymes by the compounds described were determined after a 10 minute preincubation with enzymes in reaction mixtures minus substrate. Reactions were initiated by the addition of substrates. The concentration used for assays were porcine pancreatic elastase at 240 nM and human Cathepsin G at 50 nM. Cathepsin D was used at the concentration that produced approximately 0.15 O.D. increase per 20 min at 280 nm under the standard conditions. All other proteases were assayed at the concentrations that produced approximately 0.1 O.D. change per minute at 410 nm under the standard conditions.

thrombin = biological target: T2, thrombin (Homo sapiens, UniProt P00734); test: Inhibition of thrombin (THR); type: biochemical; details: pH 8.6, 10 minute preincubation, 22° C.
T2 construct: from tissue; host or cells: human plasma
Procedure: as §1, §2
Enzyme: Purified thrombin from human plasma
Substrate: Tosyl-glycyl-L-prolyl-L-arginine-p-NA acetate
Reaction mixture: 50 mM Tricine-NaOH buffer (pH 8.6), 500 mM NaCl, 0.1% Polyethyleneglycol 8000, 10% DMSO, 0.5 mM Substrate.
as §3, §4

cathepsin G = biological target: T3, cathepsin G (Homo sapiens, UniProt P08311); test: Inhibition of cathepsin G (CTG); type: biochemical
T3 construct: from tissue; host or cells: human white blood cells
T3 sequence (P08311 21-244 limits assumed): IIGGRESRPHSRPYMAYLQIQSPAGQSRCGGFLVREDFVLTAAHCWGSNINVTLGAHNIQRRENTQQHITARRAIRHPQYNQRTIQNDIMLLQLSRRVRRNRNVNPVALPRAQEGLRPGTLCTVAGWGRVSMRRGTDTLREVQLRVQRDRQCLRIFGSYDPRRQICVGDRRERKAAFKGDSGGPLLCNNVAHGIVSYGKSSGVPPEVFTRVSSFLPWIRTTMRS
Procedure: Enzyme: Purified Cathepsin G from human white blood cells
Substrate: N-succinyl-L-alanyl-L-alanyl-L-phenylalanyl-L-phenylalanine -p-NA.
Reaction mixture: 10 mM Phosphate buffer (pH 7.5), 500 mM NaCl, 10% DMSO, 2.0 mM Substrate.

plasmin = biological target: T4, plasmin (Homo sapiens, UniProt P00747); test: Inhibition of plasmin (PTH); type: biochemical; details: pH 8.9, 10 minute preincubation, 22° C.
T4 construct: from tissue; host or cells: human plasma
T4 sequence (P00747 581-810 limits assumed): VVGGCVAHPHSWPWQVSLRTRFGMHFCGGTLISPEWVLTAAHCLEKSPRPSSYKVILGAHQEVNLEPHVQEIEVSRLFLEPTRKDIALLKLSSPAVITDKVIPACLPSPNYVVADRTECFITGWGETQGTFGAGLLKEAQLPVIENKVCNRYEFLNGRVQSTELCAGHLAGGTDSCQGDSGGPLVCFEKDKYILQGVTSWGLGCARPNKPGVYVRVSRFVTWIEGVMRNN
T4 sequence (P00747 97-580 partner limits assumed): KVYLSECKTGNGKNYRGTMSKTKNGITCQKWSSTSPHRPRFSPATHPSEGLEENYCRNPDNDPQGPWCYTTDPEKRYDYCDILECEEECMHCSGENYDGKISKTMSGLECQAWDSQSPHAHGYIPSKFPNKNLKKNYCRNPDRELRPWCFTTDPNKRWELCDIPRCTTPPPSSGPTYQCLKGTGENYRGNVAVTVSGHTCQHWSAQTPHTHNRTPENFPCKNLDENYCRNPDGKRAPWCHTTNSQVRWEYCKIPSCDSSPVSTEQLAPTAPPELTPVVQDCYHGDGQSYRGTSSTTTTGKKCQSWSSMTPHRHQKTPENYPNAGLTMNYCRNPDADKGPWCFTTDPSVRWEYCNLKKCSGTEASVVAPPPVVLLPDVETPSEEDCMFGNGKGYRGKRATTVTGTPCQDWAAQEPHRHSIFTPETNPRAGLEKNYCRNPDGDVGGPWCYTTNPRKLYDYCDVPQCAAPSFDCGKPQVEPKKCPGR
Procedure: as §1, §2
Enzyme: Purified plasmin from human plasma Substrate: Tosyl-glyclyl-L-prolyl-L-lysine-pNA acetate
Reaction mixture: 50 mM Tris-HCl buffer (pH 8.9), 500 mM NaCl, 5% DMSO, 0.5 mM Substrate.
as §3, §4

aminopeptidase M = biological target: T5, aminopeptidase M (Sus scrofa, UniProt P15145); test: Inhibition of aminopeptidase M (ATM); type: biochemical, porcine
T5 construct: from tissue; host or cells: porcine kidney
T5 sequence (P15145 1-963): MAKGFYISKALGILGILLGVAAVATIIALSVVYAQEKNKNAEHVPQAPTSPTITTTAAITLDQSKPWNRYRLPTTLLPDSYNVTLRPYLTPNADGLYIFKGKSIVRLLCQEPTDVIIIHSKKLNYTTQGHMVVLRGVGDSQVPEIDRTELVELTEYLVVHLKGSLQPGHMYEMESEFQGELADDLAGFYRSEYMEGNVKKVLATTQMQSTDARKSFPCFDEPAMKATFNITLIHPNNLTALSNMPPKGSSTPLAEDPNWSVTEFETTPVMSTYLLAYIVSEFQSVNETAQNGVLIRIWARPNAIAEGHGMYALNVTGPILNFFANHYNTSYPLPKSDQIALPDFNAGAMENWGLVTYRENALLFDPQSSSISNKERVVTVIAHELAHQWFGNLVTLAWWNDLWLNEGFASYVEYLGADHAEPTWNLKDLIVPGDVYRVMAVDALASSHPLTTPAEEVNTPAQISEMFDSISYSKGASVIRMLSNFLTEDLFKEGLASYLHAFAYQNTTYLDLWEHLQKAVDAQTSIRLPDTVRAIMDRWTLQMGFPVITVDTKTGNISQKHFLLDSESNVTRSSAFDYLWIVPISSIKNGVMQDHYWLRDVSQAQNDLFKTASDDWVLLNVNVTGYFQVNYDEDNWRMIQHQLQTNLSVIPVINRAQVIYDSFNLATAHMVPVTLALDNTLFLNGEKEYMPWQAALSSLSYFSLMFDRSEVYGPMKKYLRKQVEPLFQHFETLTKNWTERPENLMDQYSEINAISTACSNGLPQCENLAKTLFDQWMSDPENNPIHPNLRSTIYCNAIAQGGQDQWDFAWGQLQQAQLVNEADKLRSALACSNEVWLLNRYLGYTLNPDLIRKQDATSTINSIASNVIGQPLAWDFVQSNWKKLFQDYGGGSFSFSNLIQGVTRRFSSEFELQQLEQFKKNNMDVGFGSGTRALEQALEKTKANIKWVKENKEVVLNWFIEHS
Procedure: as §1, §2
aminopeptidase M; CTG, cathespin G; CTD, cathespin D; PPE, porcine
Enzyme: Purified aminopeptidase M from porcine kidney
Reaction Mixture: 50 mM Tricine buffer (pH 7.5), 500 mM NaCl, 10% DMSO, 2.0 mM Substrate.
as §3, §4

[1] = biological target: T6, human leukocyte elastase (HLE) (Homo sapiens, UniProt P08246); test: Enzyme Assay for Inhibition of HLE; type: biochemical; details: HLE 10 nM, pH 7.6, 10 minute preincubation, 30° C.
T6 construct: from tissue; host or cells: human white blood cells
T6 sequence (P08246 30-247 limits assumed): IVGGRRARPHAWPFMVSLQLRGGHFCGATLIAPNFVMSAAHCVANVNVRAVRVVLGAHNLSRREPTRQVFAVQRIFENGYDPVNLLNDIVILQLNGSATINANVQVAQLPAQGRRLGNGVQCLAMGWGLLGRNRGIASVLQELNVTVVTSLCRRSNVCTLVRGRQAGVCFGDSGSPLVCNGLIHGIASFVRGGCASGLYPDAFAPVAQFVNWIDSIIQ
Procedure: Enzyme Assay for Inhibition of HLE:
Enzyme: Purified elastase from human white blood cells.
Substrate: MeO-succinyl-L-alanyl-L-alanyl-L-prolyl-L-valine-p-nitro-anilide(NA).
Reaction Mixture: 10 mM phosphate buffer (pH 7.6), 500 mM NaCl, 10% dimethylsulfoxide (DMSO), 0.35 mM substrate.
The enzyme activity was determined by monitoring the increase in absorbance at 410 nm caused by the hydrolysis of chromogenic substrates. Inhibition of enzyme by the compounds described were determined after a 10 minute preincubation with the enzyme in reaction mixture minus substrate. Reaction was initiated by the addition of substrate. The concentration of human leukocyte elastase used for assay was at 10 nM.
HLE, CTG, PPE and CTD were tested at 30° C. and the others were […]

[2] = cathepsin C, pH 5.4, 10 minute preincubation, 22° C., read-out: IC50 CTC
[3] = cathepsin G 50 nM, pH 7.5, 10 minute preincubation, 30° C., read-out: IC50 CTG (converted)
[4] = aminopeptidase M, pH 7.5, 10 minute preincubation, 22° C., read-out: IC50 ATM

T1 sequence (Q3ZCJ8 231-394 limits assumed): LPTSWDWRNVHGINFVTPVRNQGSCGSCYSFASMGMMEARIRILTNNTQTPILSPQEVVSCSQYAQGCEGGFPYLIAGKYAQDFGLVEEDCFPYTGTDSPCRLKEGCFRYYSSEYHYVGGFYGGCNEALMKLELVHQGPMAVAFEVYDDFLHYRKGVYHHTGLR
T1 sequence (Q3ZCJ8 395-463 limits assumed): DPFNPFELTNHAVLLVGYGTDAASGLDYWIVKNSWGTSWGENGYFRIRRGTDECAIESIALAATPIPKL
T1 sequence (Q3ZCJ8 25-134 limits assumed): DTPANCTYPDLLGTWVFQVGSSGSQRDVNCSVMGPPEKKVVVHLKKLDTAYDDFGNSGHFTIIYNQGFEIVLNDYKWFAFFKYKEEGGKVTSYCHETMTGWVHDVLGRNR

Row | Compound | IC50 (cathepsin C; [2]) | IC50 (thrombin) | IC50 (cathepsin G; [3]) | IC50 (plasmin) | IC50 (aminopeptidase M) | IC50 [1] | IC50 (aminopeptidase M; [4]) | IC50 (cathepsin C) | IC50 (cathepsin G)
1 | CO[C@H]1C(=O)N2C(C(=O)N3CCCC3)=C(C)C3(CC3(c3ccccc3)c3ccccc3)S(=O)(=O)[C@H]12 (stereo partly drawn) [Example 10, 7α-Methoxy-2-spiro (2',2'-diphenyl)cyclopropyl-3-methyl-3-cephem-4-pyrrolidine carboxamide-1,1-dioxide] | > 9.99 µM | > 40 µM | > 30.9 µM | > 40 µM | > 40 µM | 0.0447 µM |  |  | 
2 | CC1=C(C(=O)OC(C)(C)C)N2C(=O)[C@H](Br)[C@H]2S(=O)(=O)C12CC2(c1ccccc1)c1ccccc1 (stereo partly drawn) [Example 3, t-Butyl 7α-bromo-2-spiro(2',2'-diphenyl) cyclopropyl-3-methyl-3-cephem 4-carboxylate-1,1-dioxide] | > 40 µM | > 41.9 µM | 40 µM | 5.51 µM |  | 0.00496 µM | > 40 µM |  | 
3 | CC1=C(C(=O)OC(c2ccccc2)c2ccccc2)N2C(=O)[C@H](Br)[C@H]2S(=O)(=O)C12CC2(c1ccccc1)c1ccccc1 (single isomer, unassigned) [Example 2, benzhydryl 7α-bromo-2-spiro(2', 2'-diphenyl) cyclopropyl-3-methyl-3-cephem-4-carboxylate-1,1-dioxide] | > 38.5 µM | > 40 µM | > 16.2 µM | 3.21 µM |  | 0.0336 µM | > 40 µM |  | 
4 | CC1=C(C(=O)OC(c2ccccc2)c2ccccc2)N2C(=O)[C@H](Br)[C@H]2S(=O)(=O)C12CC2(c1ccc(F)cc1)c1ccc(F)cc1 (single isomer, unassigned) [Example 13, Benzhydryl 7α-bromo-2-spiro[2',2'-(4',4'-difluoro)diphenyl] cyclopropyl-3-methyl-3-cephem-4-carboxylate-1,1-dioxide] |  | > 40 µM | 19 µM | 3.19 µM | > 40 µM | 0.00507 µM |  | > 40 µM | 
5 | CCOC(=O)C1CC12C(C)=C(C(=O)OC(c1ccccc1)c1ccccc1)N1C(=O)[C@H](Br)[C@H]1S2(=O)=O (stereo partly drawn) [Example 13 (1), Benzhydryl 7α-bromo-2-spiro(2'-ethoxycarbonyl)cyclopropyl-3-methyl-3-cephem-4-carboxylate-1,1-dioxide] |  | > 40 µM | 13 µM | 11 µM | > 40 µM | 0.0644 µM |  | > 40 µM | 
6 | CC1=C(C(=O)OC(c2ccccc2)c2ccccc2)N2C(=O)[C@H](Cl)[C@H]2S(=O)(=O)C12CC2(c1ccccc1)c1ccccc1 (single isomer, unassigned) [Example 1, Benzhydryl 7α-chloro-2-spiro(2',2'-diphenyl) cyclopropyl-3-methyl-3-cephem-4-carboxylate-1,1-dioxide] | > 60 µM | > 40 µM | 20 µM | 3.61 µM |  | 0.00475 µM | > 60 µM |  | 
7 | CC1=C(C(=O)OC(c2ccccc2)c2ccccc2)N2C(=O)[C@H](Br)[C@H]2S(=O)(=O)C12CC2(C)c1ccccc1 (stereo partly drawn) [Example 13 (2), Benzhydryl 7α-bromo-2-spiro(2'-phenyl-2'-methyl) cyclopropyl-3-methyl-3-cephem-4-carboxylate-1,1-dioxide] |  | > 40 µM |  | 5.5 µM | > 40 µM | 0.00473 µM |  | > 40 µM | 40 µM
8 | CC1=C(C(=O)N2CCCC2)N2C(=O)[C@H](Br)[C@H]2S(=O)(=O)C12CC2(c1ccccc1)c1ccccc1 (stereo partly drawn) [Example 6, 7α Bromo-2-spiro(2',2'-diphenyl)cyclopropyl-3-methyl-3-cephem-4-pyrrolidine carboxamide-1,1-dioxide] | > 9.77 µM | > 39 µM | > 39 µM | > 39 µM |  | 0.0107 µM | > 9.77 µM |  | 
9 | CO[C@H]1C(=O)N2C(C(=O)OC(c3ccccc3)c3ccccc3)=C(C)C3(CC3(c3ccccc3)c3ccccc3)S(=O)(=O)[C@H]12 (stereo partly drawn) [Example 9, Benzhydryl 7α-methoxy-2-spiro (2',2'-diphenyl) cyclopropyl-3-methyl-3-cephem-4-carboxylate-1,1-dioxide] |  | > 10 µM | > 10 µM | 8.8 µM | > 10 µM | 0.00363 µM |  | > 10 µM | 
10 | CCO[C@H]1C(=O)N2C(C(=O)OCC(Cl)(Cl)Cl)=C(C)C3(CC3(c3ccccc3)c3ccccc3)S(=O)(=O)[C@H]12 (stereo partly drawn) [Example 7, 2,2,2-Trichloroethyl-7α-ethoxy-2-spiro(2',2'-diphenyl)cyclo-propyl-3-methyl-3-cephem-4-carboxylate-1,1-dioxide] | > 10 µM | > 10 µM | 0.32 µM | > 10 µM |  | 0.00547 µM | > 10 µM |  | 
11 | CC1=C(C(=O)OC(c2ccccc2)c2ccccc2)N2C(=O)[C@H](Br)[C@H]2S(=O)(=O)C12CC2(c1ccc(Cl)cc1)c1ccc(Cl)cc1 (single isomer, unassigned) [Example 12, Benzhydryl 7α-bromo-2-spiro [2',2'-(4',4'-dichloro)diphenyl]cyclopropyl-3-methyl-3-cephem-4-carboxylate-1,1-dioxide] |  | > 55.3 µM | 19.4 µM | 2.21 µM | > 55.3 µM | 0.0101 µM |  | > 55.3 µM | 
